The results in this text go back to ChEMBL document CHEMBL3507680, “University of Dundee, Gates Library screen for HepG2 cell viability”.

This data set is described as follows: Human HepG2 cell viability assay in 384 well format. The data set is classed as toxicity, cell-based. Set-up: dose 125 nL, time 70.5 hour; cytotoxicity at 70.5 h: concentration not given beside the values. The conditions noted are these: HepG2 cells, read-out: Inhibition.
Regarding `Cc1cc2c(=O)n3c(nc2s1)CCN(C(=O)c1scnc1C)CC3`, the cytotoxicity at 70.5 h was -12.5%. Regarding `Cc1cc(-c2cnc(NC3CCCC3)nc2-c2ccoc2C)on1`, the cytotoxicity at 70.5 h is -8.8%. As to `CCN(CC)CCNc1ncc(-c2cc(C)no2)c(-c2ccoc2C)n1`, the cytotoxicity at 70.5 h is -10.5%. Next, `Cc1ccc(-c2cc(N)c(=O)n(CC(=O)NCC3CC3)n2)s1`: -23.3%; `CNC(=O)CCc1cc(C)nc(C2CCCN2)c1` (stereo not drawn): -13.7%.

With `COCCN1CCC(Cc2cncc(-c3ccc(C(=O)O)cc3)n2)C1` (stereo not drawn), the cytotoxicity at 70.5 h was -11.8%. Consider `NCc1cnn(-c2ccccc2C(=O)NCc2ccncc2)c1`, for which the cytotoxicity at 70.5 h is -8.5%. For the compound `Cc1ncc(CNC(=O)Cc2ccc(Cl)cc2)c(C2CCCN2C)n1` (stereo not drawn), the cytotoxicity at 70.5 h was -16.7%.

With `CCCn1ncc(CN2C[C@@H]3CCCN3C[C@@H]2CCSC)c1C`, the cytotoxicity at 70.5 h is 8.56%.

`CN(C)C(=O)C1(CCCc2ccncc2)CCCN1` (stereo not drawn): the cytotoxicity at 70.5 h came to 9.48%. With `Nc1cc(N2CCCC2c2cnccn2)ncn1` (stereo not drawn), the cytotoxicity at 70.5 h was -7.75%. Next, `NC(=O)C1CN(Cc2c[nH]cn2)CCN(C2CCOCC2)C1` (stereo not drawn): -9.19%; `c1cc2nccc(CC3CCCN(Cc4ncc[nH]4)CC3)c2cn1` (stereo not drawn): -7.89%; `COCC(=O)N1CCC(c2noc3nc(C)cc(C(F)(F)F)c23)CC1`: 24.6%.

Turning to `CC(=O)N1CCN(c2cc(C3CN(C)CCO3)nc(C)n2)CC1` (stereo not drawn), the cytotoxicity at 70.5 h is -11.6%. Regarding `CN(Cc1nc(C(F)(F)F)cs1)C(=O)CCc1ccccn1`, the cytotoxicity at 70.5 h is -1.82%.

For `CC(=O)N1CC(C)CN(C(=O)c2cscn2)c2ccccc21` (stereo not drawn), the cytotoxicity at 70.5 h amounted to 2.08%. As for `CC(=O)N1CC(C)CN(C(=O)c2cccnc2C)c2ccccc21` (stereo not drawn), the cytotoxicity at 70.5 h is -7.8%.

With `Cc1cccc(Oc2ccccc2CNC(=O)C2CCC(=O)NC2)c1` (stereo not drawn), the cytotoxicity at 70.5 h was -10.6%.

Take `O=C1CCN(C(=O)NCCc2c[nH]c3ccc(Cl)cc23)CCN1`: the cytotoxicity at 70.5 h is -8.44%. Next, `COC(=O)c1cc(CN2CCC(c3noc(C)n3)CC2)c(C)s1`: 2.05%; `Cc1cccc(Oc2ccccc2CNC(=O)C2CCNC(=O)C2)c1` (stereo not drawn): -6.18%; `COC(=O)c1ccc(CN2CCC(c3noc(C)n3)CC2)s1`: -8.54%.

For `Cc1ccc(CNC(=O)C2CCNC(=O)C2)c(OCCC(C)C)c1` (stereo not drawn), the cytotoxicity at 70.5 h worked out at 0.635%. As to `COC(=O)c1ccc(CN2CCN(Cc3nc(C)no3)CC2)s1`, the cytotoxicity at 70.5 h was -7.55%. Take `O=C(c1cc(F)cc(F)c1)N1CCC(O)(C(F)(F)F)CC1`: the cytotoxicity at 70.5 h came out at 19.9%.

For the compound `COCCC(=O)N(C)Cc1nc(C(F)(F)F)cs1`, the cytotoxicity at 70.5 h was -1.8%. Regarding `CCSCc1ccc(C(=O)N2CCCN(CC)CC2)cc1`, the cytotoxicity at 70.5 h is -10.3%.

As to `CCOc1ccc(SCCNS(=O)(=O)CC)cc1`, the cytotoxicity at 70.5 h was -11.3%. In the case of `CN(CCOc1cccc(S(C)(=O)=O)c1)CC(F)F` it was -10.4%; in that of `CN(CCOc1cccc(S(C)(=O)=O)c1)c1ccccc1`, -2.26%.

For `COCCCN1CCN(CC2CCCO2)CC1` (stereo not drawn), the cytotoxicity at 70.5 h was determined as 22.5%.

Regarding `Cn1cnc(S(=O)(=O)N2CCCc3c(F)cc(F)cc32)c1Cl`, the cytotoxicity at 70.5 h worked out at 22.3%. Next, `Cc1cc(F)c2c(c1)CCCN2S(=O)(=O)c1ncn(C)c1Cl`: -0.387%. In the case of `Cc1nc(C)c(C(C)NCc2c(C)nn(C)c2N(C)C)s1` (stereo not drawn), the cytotoxicity at 70.5 h is -6.29%. Turning to `COCCCN1Cc2cccc(NC(=O)c3cc(F)cc(F)c3)c2C1`, the cytotoxicity at 70.5 h turned out to be 4.56%.

In the case of `COCCCN1Cc2cccc(NC(=O)c3cc(F)ccc3F)c2C1`, the cytotoxicity at 70.5 h is -9.4%. Consider `N#CC1(NC(=O)c2cc(Cl)c3c(c2)OCCCO3)CCC1`, for which the cytotoxicity at 70.5 h is -4.84%. Regarding `Cn1cc(-c2ncc(C(=O)NCCCn3ccccc3=O)s2)cn1`, the cytotoxicity at 70.5 h is -10.1%. In the case of `Cc1cc(NC(=O)NCc2nncn2C)ccc1OC(C)C`, the cytotoxicity at 70.5 h amounted to 22.5%. On to `O=C(NCCc1cc(F)ccc1F)NCC(O)C1CC1` (stereo not drawn), for which the cytotoxicity at 70.5 h came to 11.6%. As to `O=C(NCCCO)NCCc1cc(F)ccc1F`, the cytotoxicity at 70.5 h was -0.605%. `O=C(O)c1cc(/C=C/c2ccccc2)ncn1`: the cytotoxicity at 70.5 h is -5.54%. Take `CC1CN(C)c2ccccc2CN1CCn1cncn1` (stereo not drawn): the cytotoxicity at 70.5 h was -0.327%. Turning to `CC(Nc1ccc(C(F)(F)F)cc1C#N)c1cccc(S(N)(=O)=O)c1` (stereo not drawn), the cytotoxicity at 70.5 h stood at 9.79%. Consider `CC(Nc1c(F)cc(C#N)cc1F)c1cccc(S(N)(=O)=O)c1` (stereo not drawn), for which the cytotoxicity at 70.5 h is -9.34%.

In the case of `COc1ccc(CN2CCn3cccc3C2C)cc1F` (stereo not drawn), the cytotoxicity at 70.5 h was -3.79%. In the case of `COCCCN1Cc2cccc(NC(=O)c3ccccc3C)c2C1` it was 15.2%. Regarding `CC(C)c1ocnc1C(=O)Nc1cccc(Cn2ccccc2=O)c1`, the cytotoxicity at 70.5 h came to 19%. For `O=C(NCc1cccnc1-n1cncn1)c1cc(Cl)ccn1`, the cytotoxicity at 70.5 h is 12.4%. In the case of `COc1cc2c(cc1OC)CN(C(=O)NCC1CCCO1)CC2` (stereo not drawn) it was -3.43%; in that of `c1csc(N2CCCN(c3ncnc4sccc34)CC2)n1`, 10.8%; in that of `O=C(NCc1ccc(-n2cncn2)nc1)c1cc[nH]n1`, -4.63%. `COc1ccc2c(c1)CCCN(C(=O)NCC1CCCO1)C2` (stereo not drawn): the cytotoxicity at 70.5 h was -8.68%. In the case of `COc1ccc(N2CCC(NC(=O)c3ccc(C#N)cc3)CC2)cc1`, the cytotoxicity at 70.5 h was -4.31%.

On to `Cc1ccc(CNC(C)(C)c2noc(C(C)(C)C)n2)o1`, for which the cytotoxicity at 70.5 h is -1.89%. `COc1ncnc(N)c1CNCCc1ccccc1`: the cytotoxicity at 70.5 h is -2.72%. Turning to `CC(C)OCCN1CCC(Nc2ncccn2)CC1`, the cytotoxicity at 70.5 h came out at 0.193%. Consider `CN1CCC(NC(=O)c2cc(Cl)cc(Br)c2O)C1=O` (stereo not drawn), for which the cytotoxicity at 70.5 h is -5.52%. In the case of `COc1ccsc1C(=O)NC1CCN(c2ccc(C#N)cc2)CC1` it was -5.67%. In the case of `CCN1CCN(C(=O)C2CCOC2)c2ccccc21` (stereo not drawn), the cytotoxicity at 70.5 h is 21%.

For `CC(C)COc1cncc(N2CCCC(CC(N)=O)C2)n1` (stereo not drawn), the cytotoxicity at 70.5 h is -1.79%. Next, `CCC(=O)NC1CCCN(c2cncc(OCc3ccccc3)n2)C1` (stereo not drawn): -0.318%; `NC(=O)CC1CCCN(c2cncc(OCc3ccccc3)n2)C1` (stereo not drawn): 21.3%. For `Cc1cnc(CCNC(=O)NCCc2ccc(O)cc2)s1`, the cytotoxicity at 70.5 h is -3.5%. Regarding `CCc1nnc(C(C)N2CCN(CCC(C)(C)C)CC2)o1` (stereo not drawn), the cytotoxicity at 70.5 h is -7.09%. Next, `CC1CN(c2ncnc3c2cnn3C)CCN1c1nccs1` (stereo not drawn): -4.86%; `COc1ccc(C(C)NCCc2ccc(NC(C)=O)cc2)c(OC)c1` (stereo not drawn): 0.0966%.

Turning to `COc1ccc(C(C)NCCc2ccc(NC(C)=O)cc2)cc1F` (stereo not drawn), the cytotoxicity at 70.5 h is -4.18%. In the case of `CC(O)CN1CCN(Cc2coc(-c3cccc(Cl)c3)n2)CC1` (stereo not drawn), the cytotoxicity at 70.5 h was -1.14%. In the case of `OCCN1CCN(Cc2coc(-c3ccccc3Cl)n2)CC1` it was -19.7%. Turning to `COC(=O)c1ccc(C(=O)NCc2ccco2)nc1`, the cytotoxicity at 70.5 h is -8.73%. In the case of `Cc1cc(C(=O)N2CCNC(=O)C2)c(C)n1Cc1ccccn1` it was -5.56%; in that of `NC(=O)C(NC1CCN(CC2CCCCC2)CC1)c1ccccc1` (stereo not drawn), -4.82%; in that of `CN(C)CCCNc1ncnc2cccc(F)c12`, 15.7%. In the case of `O=C(O)c1ncccc1OCC(F)(F)F`, the cytotoxicity at 70.5 h was -0.00705%. As for `CCn1cc(C(=O)NCC(OC)c2cccc(Cl)c2)cn1` (stereo not drawn), the cytotoxicity at 70.5 h was -2.35%. Consider `CC(O)CN1CCN(C(=O)CCOC(C)C)CC1` (stereo not drawn), for which the cytotoxicity at 70.5 h is -3.79%. Next, `COc1ccc(CN(C)CCS(=O)(=O)c2ccc(Cl)cc2)cc1OC`: -12.9%; `COc1ccc(CCNC(=O)C(C)Nc2ccc(C)c(C)c2)cc1` (stereo not drawn): 21%; `COc1ccc(CCNC(=O)C(C)Nc2cccc(C)c2C)cc1` (stereo not drawn): -4.88%. Next, `CCN1CCN(C(C)CNC(=O)Nc2nnc(C(C)C)s2)CC1` (stereo not drawn): -12.4%; `Cc1nc(CN2CCN(C(=O)c3ccc(=O)n(C)c3)CC2)cs1`: -2.46%. As to `CCCn1cc(NC(=O)c2ccc(N(C)CC)cc2)ccc1=O`, the cytotoxicity at 70.5 h was -7.67%. For the compound `COc1cccc(CN(C)c2ncc(C(N)=O)cc2Cl)c1`, the cytotoxicity at 70.5 h is -4.58%. On to `CN(Cc1ccc(C#N)cc1)c1ncc(C(N)=O)cc1Cl`, for which the cytotoxicity at 70.5 h is -7.36%.

With `CCCn1cc(NC(=O)c2cccnc2O)ccc1=O`, the cytotoxicity at 70.5 h is -1.07%. Regarding `COC(=O)c1sc2cccc(F)c2c1CNC(=O)C1CCCO1` (stereo not drawn), the cytotoxicity at 70.5 h is 6.87%. Next, `CC(C)(O)CN1CCN(C(=O)c2cccn2Cc2ccncc2)CC1`: -9.5%; `Cn1cc(C(=O)N2CCN(Cc3cscn3)CC2)ccc1=O`: 4.94%; `Cc1csc(C2(NC(=O)CCc3ccncc3)CCCC2)n1`: -7.21%. On to `Cc1cc(CN2CCN(C(=O)c3ccc(=O)n(C)c3)CC2)no1`, for which the cytotoxicity at 70.5 h was -5.04%. As to `CCn1ccnc1CN1CCCC1C(=O)Nc1nccs1` (stereo not drawn), the cytotoxicity at 70.5 h is -5.23%. Turning to `Cc1cc(F)cc2c(N3CCC(S(N)(=O)=O)CC3)c(C#N)cnc12`, the cytotoxicity at 70.5 h is -4.86%.

For the compound `CC(=O)NC1CCN(c2c(C#N)cnc3c(C)cc(F)cc23)CC1`, the cytotoxicity at 70.5 h is 0.242%.

In the case of `CC(C)(C#N)c1ccccc1CN1CCC(N2CCCC2=O)CC1`, the cytotoxicity at 70.5 h was found to be 13.9%. In the case of `COc1cc2c(cc1CNC(=O)Cc1ccc(C)nc1)OC(C)C2` (stereo not drawn) it was -6.1%. As for `Cn1cc(C(=O)N2CCN(Cc3ccccn3)CC2)ccc1=O`, the cytotoxicity at 70.5 h is 19.1%. As for `Cc1cc(-c2cnc(N3CCCC(C)C3)nc2-c2cccnc2C)on1` (stereo not drawn), the cytotoxicity at 70.5 h is 23.3%. As for `COc1ccc(OCCc2sc(C3(O)CCCNCC3)nc2C)cc1` (stereo not drawn), the cytotoxicity at 70.5 h was 2.2%. Regarding `Cc1ccc(CN(CCCn2ccnc2)Cc2c[nH]cn2)s1`, the cytotoxicity at 70.5 h is -0.992%. Consider `COc1ccc(CN(Cc2cncn2C)CC2CCCO2)cc1OC` (stereo not drawn), for which the cytotoxicity at 70.5 h was -10.3%. Next, `Cc1cc(C[C@@H]2COC[C@H]2NCc2ccc(Br)s2)on1`: 22.3%.
